# In publication PMC10381309 (Journal of Fungi, 2023):
# Experiments:
# [1] = test system: Exophiala heteromorpha (ATCC 28180); assay: Chequerboard synergism assay (FICI); format: cell-based; conditions: E. heteromorpha
# Procedure: (§1) To assess the type of interaction between the hit drugs and the antifungal drugs most used in the treatment of CBM (itraconazole and terbinafine), the fractional inhibitory concentration index (FICI) was determined, which defines the type of interaction between drugs in combination as follows: synergism if FICI ≤ 0.5; indifference if 0.5 < FICI ≤ 4; and antagonism if FICI > 4 [39]. The FICI was obtained by the sum of the fractional inhibitory concentrations (FIC) or by the formula: (A/MIC(a) = FIC_A) + (B/MIC(b) = FIC_B) = FICI, where: A = MIC of the drug (a) in combination; MIC (a) = MIC of drug (a) alone; B = MIC of drug (b) in combination; and MIC (b) = MIC of drug (b) alone. The test was carried out using the chequerboard method, in which the two drugs were applied in a single well of a 96-well plate, so that in each of the wells there were different concentrations of the combinations between the substance and the antifungal agent (Figure S1). Drug dilutions were prepared following the methodology proposed by EUCAST, starting from a stock solution of the hit drug or antifungal drug 100× concentrated, according to the methodology described to determine the MIC [36]. Hit drug A/antifungal drug B serial microdilution preparations were performed following the above mentioned protocol, observing the final concentration in the wells after the addition of drugs and inoculum. […] Column 12 was reserved for drug B (itraconazole or terbinafine) susceptibility testing. Row H was reserved for the selected NCC substance. The other combined drug and substance concentrations were distributed between columns 2 and 11 in rows A to G. Drug concentrations ranged from 0.062 μM to 4 µM for itraconazole and terbinafine, and from 0.125 μM to 64 µM for the hit drug on the combination boards.
# [2] = test system: Phialophora verrucosa (CFP 00937); assay: Chequerboard synergism assay (FICI); format: cell-based; conditions: P. verrucosa
# Procedure: as §1
# [3] = test system: Fonsecaea pedrosoi (CFP 00791); assay: Chequerboard synergism assay (FICI); format: cell-based; conditions: F. pedrosoi
# Procedure: as §1
# [4] = test system: Cladophialophora carrionii (CFP 00910); assay: Chequerboard synergism assay (FICI); format: cell-based; conditions: C. carrionii
# Procedure: as §1
# [5] = test system: Fonsecaea nubica (CFP 00912); assay: Chequerboard synergism assay (FICI); format: cell-based; conditions: F. nubica
# Procedure: as §1
# [6] = test system: Rhinocladiela similis (CFP 00790); assay: Chequerboard synergism assay (FICI); format: cell-based; conditions: R. similis
# Procedure: as §1
# [7] = test system: Exophiala dermatitidis (ATCC 28869); assay: Chequerboard synergism assay (FICI); format: cell-based; conditions: E. dermatitidis
# Procedure: as §1
# [8] = test system: Fonsecaea monophora (CFP 00911); assay: Chequerboard synergism assay (FICI); format: cell-based; conditions: F. monophora
# Procedure: as §1
# [9] = test system: CBM agents; assay: Chequerboard synergism assay, stated over all tested isolates; format: cell-based
# Procedure: To assess the type of interaction between the hit drugs and the antifungal drugs most used in the treatment of CBM (itraconazole and terbinafine), the fractional inhibitory concentration index (FICI) was determined, which defines the type of interaction between drugs in combination as follows: synergism if FICI ≤ 0.5; indifference if 0.5 < FICI ≤ 4; and antagonism if FICI > 4 [39]. The FICI was obtained by the sum of the fractional inhibitory concentrations (FIC) or by the formula: (A/MIC(a) = FIC_A) + (B/MIC(b) = FIC_B) = FICI, where: A = MIC of the drug (a) in combination; MIC (a) = MIC of drug (a) alone; B = MIC of drug (b) in combination; and MIC (b) = MIC of drug (b) alone. The test was carried out using the chequerboard method, in which the two drugs were applied in a single well of a 96-well plate, so that in each of the wells there were different concentrations of the combinations between the substance and the antifungal agent (Figure S1). Drug dilutions were prepared following the methodology proposed by EUCAST, starting from a stock solution of the hit drug or antifungal drug 100× concentrated, according to the methodology described to determine the MIC [36]. Hit drug A/antifungal drug B serial microdilution preparations were performed following the above mentioned protocol, observing the final concentration in the wells after the addition of drugs and inoculum. […]
# [10] = test system: Cladophialophora carrionii (CFP 00910); assay: Minimum fungicidal concentration determination; format: cell-based
# Procedure: The MFC was determined as the lowest drug concentration without fungal growth on Sabouraud agar after five days of incubation at 35 °C.
# [11] = test system: Cladophialophora carrionii (CFP 00910); conditions: C. carrionii; PDA; 7 days, 37 °C; albendazole at ½ MIC
# Procedure: At the end of the seven days of incubation at 37 °C, the plates were read visually. The aspect of the colonies supplemented with albendazole were compared to those of the positive melanin and inhibition melanin controls, to determine whether the color of the albendazole-supplemented cultures resembled the positive DHN-melanin or the melanin inhibition control. Pictures of the colonies were captured using a Canon EOS Rebel T7+ digital camera.
# [12] = test system: Exophiala heteromorpha (ATCC 28180); assay: MIC determination (EUCAST, minor modifications); format: cell-based; conditions: for Selectivity Index (SI): E. heteromorpha
# Procedure: (§2) Minimum inhibitory concentrations (MICs) were determined using the method proposed by the European Committee on Antimicrobial Susceptibility Testing (EUCAST), with minor modifications. Hit drugs were serially diluted (80 μM to 0.15625 μM) in RPMI 1640 (twice concentrated, pH 7; supplemented with 2% glucose) buffered with MOPS in 96-well plates. The inoculums of all strains were prepared following the EUCAST protocol. Plates were incubated at 35 °C for 72–96 h. The MIC of the NCC substances was determined as the lowest concentration capable of inhibiting 100% of fungal growth when compared to the growth control well. MIC values were determined in duplicate.
# [13] = test system: Phialophora verrucosa (CFP 00937); assay: MIC determination (EUCAST, minor modifications); format: cell-based; conditions: for Selectivity Index (SI): P. verrucosa
# Procedure: as §2
# [14] = test system: Fonsecaea pedrosoi (CFP 00791); assay: MIC determination (EUCAST, minor modifications); format: cell-based; conditions: for Selectivity Index (SI): F. pedrosoi
# Procedure: as §2
# [15] = test system: Cladophialophora carrionii (CFP 00910); assay: MIC determination (EUCAST, minor modifications); format: cell-based; conditions: for Selectivity Index (SI): C. carrionii
# Procedure: as §2
# [16] = test system: Fonsecaea nubica (CFP 00912); assay: MIC determination (EUCAST, minor modifications); format: cell-based; conditions: for Selectivity Index (SI): F. nubica
# Procedure: as §2
# [17] = test system: Rhinocladiela similis (CFP 00790); assay: MIC determination (EUCAST, minor modifications); format: cell-based; conditions: for Selectivity Index (SI): R. similis
# Procedure: as §2
# [18] = test system: Exophiala dermatitidis (ATCC 28869); assay: MIC determination (EUCAST, minor modifications); format: cell-based; conditions: for Selectivity Index (SI): E. dermatitidis
# Procedure: as §2
# [19] = test system: Fonsecaea monophora (CFP 00911); assay: MIC determination (EUCAST, minor modifications); format: cell-based; conditions: for Selectivity Index (SI): F. monophora
# Procedure: as §2
smiles,measurement,setting,value
CCCSc1ccc2nc(NC(=O)OC)[nH]c2c1 [Albendazole],FICI Albendazole + Itraconazole,[1]; combination with itraconazole,1.03
same,FICI Albendazole + Terbinafine,[1]; combination with terbinafine,1.06
same,FICI Albendazole + Itraconazole,[2]; combination with itraconazole,1.125
same,FICI Albendazole + Terbinafine,[2]; combination with terbinafine,2.12
same,FICI Albendazole + Itraconazole,[3]; combination with itraconazole,1
same,FICI Albendazole + Terbinafine,[3]; combination with terbinafine,1.12
same,FICI Albendazole + Itraconazole,[4]; combination with itraconazole,1.06
same,FICI Albendazole + Terbinafine,[4]; combination with terbinafine,1.06
same,FICI Albendazole + Itraconazole,[5]; combination with itraconazole,1.25
same,FICI Albendazole + Terbinafine,[5]; combination with terbinafine,1.12
same,FICI Albendazole + Itraconazole,[6]; combination with itraconazole,0.62
same,FICI Albendazole + Terbinafine,[6]; combination with terbinafine,2
same,FICI Albendazole + Itraconazole,[7]; combination with itraconazole,1.06
same,FICI Albendazole + Terbinafine,[7]; combination with terbinafine,1.06
same,FICI Albendazole + Itraconazole,[8]; combination with itraconazole,1.50
same,FICI Albendazole + Terbinafine,[8]; combination with terbinafine,1.12
same,"type of interaction, albendazole with itraconazole",[9],indifferent
same,"type of interaction, albendazole with terbinafine",[9],indifferent
same,MFC:MIC Ratio,[10]; C. carrionii,8
same,MFC,[10]; Cladophialophora carrionii,20 µM
same,melanin production,[11],did not observe a decrease in melanin production
same,Selectivity Index (SI),[12]; CC50 HaCat 96 h / MIC,34.04
same,Selectivity Index (SI),[12]; CC50 Vero 24 h / MIC,150.94
same,Selectivity Index (SI),[12]; CC50 Vero 96 h / MIC,104.62
same,MIC,"[12]; Exophiala heteromorpha, ATCC28180",2.5 µM
same,Selectivity Index (SI),[13]; CC50 HaCat 96 h / MIC,136.16
same,Selectivity Index (SI),[13]; CC50 Vero 24 h / MIC,603.76
same,Selectivity Index (SI),[13]; CC50 Vero 96 h / MIC,418.49
same,MIC,[13]; Phialophora verrucosa,0.625 µM
same,Selectivity Index (SI),[14]; CC50 HaCat 96 h / MIC,68.08
same,Selectivity Index (SI),[14]; CC50 Vero 24 h / MIC,301.88
same,Selectivity Index (SI),[14]; CC50 Vero 96 h / MIC,209.24
same,MIC,[14]; Fonsecaea pedrosoi,1.25 µM
same,Selectivity Index (SI),[15]; CC50 HaCat 96 h / MIC,34.04
same,Selectivity Index (SI),[15]; CC50 Vero 24 h / MIC,150.94
same,Selectivity Index (SI),[15]; CC50 Vero 96 h / MIC,104.62
same,MIC,[15]; Cladophialophora carrionii,2.5 µM
same,Selectivity Index (SI),[16]; CC50 HaCat 96 h / MIC,136.16
same,Selectivity Index (SI),[16]; CC50 Vero 24 h / MIC,603.76
same,Selectivity Index (SI),[16]; CC50 Vero 96 h / MIC,418.49
same,MIC,[16]; Fonsecaea nubica,0.625 µM
same,MIC,[17],1.25 µM
same,Selectivity Index (SI),[17]; CC50 HaCat 96 h / MIC,68.08
same,Selectivity Index (SI),[17]; CC50 Vero 24 h / MIC,301.88
same,Selectivity Index (SI),[17]; CC50 Vero 96 h / MIC,209.24
same,Selectivity Index (SI),[18]; CC50 HaCat 96 h / MIC,34.04
same,Selectivity Index (SI),[18]; CC50 Vero 24 h / MIC,150.94
same,Selectivity Index (SI),[18]; CC50 Vero 96 h / MIC,104.62
same,MIC,"[18]; Exophiala dermatitidis, ATCC28869",2.5 µM
same,Selectivity Index (SI),[19]; CC50 HaCat 96 h / MIC,136.16
same,Selectivity Index (SI),[19]; CC50 Vero 24 h / MIC,603.76
same,Selectivity Index (SI),[19]; CC50 Vero 96 h / MIC,418.49
same,MIC,[19]; Fonsecaea monophora,0.625 µM
